The assay has as its target Aldo-keto reductase family 1 member B1 (Homo sapiens, UniProt P15121). Description: Inhibition of aldose reductase (unknown origin).

The values below come from ChEMBL document CHEMBL3045790, “QSAR study of 5-arylidene-2,4-thiazolidinediones as aldose reductase inhibitors” (Med Chem Res, 2008).

`O=C1NC(=O)/C(=C/c2cccc3ccccc23)S1`: 8950 nM corresponded to half-maximal inhibition (IC50). The result for `O=C(O)CN1C(=O)S/C(=C\c2cccc(Oc3ccccc3)c2)C1=O` reads 10700 nM; that for `O=C(O)CN1C(=O)S/C(=C\c2ccc(Oc3ccccc3)cc2)C1=O`, 170 nM. On to `O=C(O)CN1C(=O)S/C(=C\c2ccc(OCc3ccccc3)cc2)C1=O`, for which it took 10700 nM to reach half-maximal inhibition (IC50). This IC50 lies about 63-fold higher than the previous one. Consider `O=C1NC(=O)/C(=C/c2cccc(Oc3ccccc3)c2)S1`, for which the IC50 (commonly the point on the concentration scale where inhibition reaches its midpoint) is 280 nM. This IC50 is about 38-fold lower than that of the compound before.

Take `COC(=O)CN1C(=O)S/C(=C/c2cccc(Oc3ccccc3)c2)C1=O`: the IC50 was 260 nM. In the case of `O=C(O)CN1C(=O)S/C(=C/c2ccc(-c3ccccc3)cc2)C1=O`, half-maximal inhibition (IC50) was put at 661 nM.

`O=C(O)CN1C(=O)S/C(=C/c2cccc3ccccc23)C1=O` had an IC50 of 6180 nM. This IC50 lies about 9.3-fold higher than the previous one.

`O=C1NC(=O)/C(=C\c2cccc(O)c2)S1` showed an IC50 of 150 nM. Turning to `O=C(O)CN1C(=O)S/C(=C/c2cccc(O)c2)C1=O`, half-maximal inhibition (IC50) was put at 4170 nM. In the case of `COC(=O)CN1C(=O)S/C(=C/c2ccc(O)cc2)C1=O`, the IC50 was 39100 nM. The result for `O=C(O)CN1C(=O)S/C(=C/c2ccc(O)cc2)C1=O` reads 490 nM. Compound `O=C(O)/C=C/CN1C(=O)S/C(=C/c2ccc(O)cc2)C1=O` had an IC50 of 1190 nM. Against the preceding compound, the IC50 is about 2.4-fold higher.

`Nc1cccc(/C=C2/SC(=O)NC2=O)c1` showed an IC50 of 6140 nM. This IC50 lies about 5.2-fold higher than the previous one. `COC(=O)CN1C(=O)S/C(=C/c2cccc(N)c2)C1=O` had an IC50 of 1320 nM.

Compound `O=C(O)CN1C(=O)S/C(=C/c2cccc([N+](=O)[O-])c2)C1=O` gave an IC50 of 130 nM.

Compound `O=C(O)CN1C(=O)S/C(=C/c2ccc([N+](=O)[O-])cc2)C1=O` showed an IC50 of 820 nM. The result for `O=C1NC(=O)/C(=C/c2ccc(O)cc2)S1` reads 20200 nM.
